Source: patent US20110172193A1, “PRO-DRUGS OF (E)-7-(3-(2-AMINO-1-FLUOROETHYLIDENE)PIPERIDIN-1-YL)-1-CYCLOPROPYL-6-FLUORO-8-METHOXY-4-OXO-1,4-DIHYDROQUINOLINE-3-CARBOXYLIC ACID” (priority 2010, published 2011)
Read-outs that look alike come from different tables or passages of the source.

How the values were obtained:
[1] = Clarity of test compound solutions at […] (aqueous solubility); conditions: for solubility at 24 h: pH 4, aqueous buffer; for Aqueous Solubility pH~7 (visual clarity): […] active-form equivalents, pH 7 (50 mM phosphate), after 24 hours
Protocol: A 50-mg/mL solution of a compound of formula (I) or a compound of formula (II) in H2O was titrated with 0.1 M NaOH until pH reached 5.7-6.1. Any solid that precipitated was filtered. The remaining solutions or phase-separated oil/H2O mixtures were freeze-dried to produce zwitterions as fluffy solids.
The aqueous solubility of Compounds #14, #15 and #16 were determined by a modified procedure. In these cases, the samples were targeted at a pH of 4 and 7 and were measured exclusively using 100 mM phosphate buffers. For both pH's, measured samples were initially prepared at ˜3 mg/ml and ˜10 mg/ml concentrations and for samples that dissolved rapidly, additional compound was added to the solution until saturated solutions were obtained.

[2] = test system: Staphylococcus aureus (OC8525), a methicillin-resistant strain (MRSA); experiment: In vivo efficacy in a mouse systemic infection model; conditions: for ED50: Staphylococcus aureus, 72 h, Swiss Webster mice infected i.p. with MRSA, 3 day survival, normalized to parent content; for % Survival: i.v., single dose level, mice
Protocol: Female Swiss Webster mice weighing between 20-25 g were infected intraperitoneally with approximately 5×10^5 colony forming units (CFU) Staphylococcus aureus (OC8525), a methicillin-resistant strain (MRSA), in 7% mucin. One hour later, the animals were given the test compound intravenously or orally in a dose volume of 0.2 mL. Each animal test group consisted of eight animals. The test compounds were prepared immediately before dosing in 5% dextrose in water (D5W) and diluted further in D5W for i.v. and p.o. administration. The mice were observed over a three day period and ED50 values were calculated from the resulting % survival curves (see Table 13, below). The measured ED50 values were normalized to the content of (E)-7-(3-(2-amino-1-fluoroethylidene)piperidin-1-yl)-1-cyclopropyl-6-fluoro-8-methoxy-4-oxo-1,4-dihydroquinoline-3-carboxylic acid. For some compounds, in vivo efficacy was determined by testing a group of eight mice at a single dose level only. In these cases, the data presented in Table 13, below are reported as percent survival at the designated dose.

[3] = 50 mM citrate buffer, thermodynamic from solid
[4] = oral dose 1 h later, read-out: ED50 p.o.
[5] = iv, i.v. dose 1 h later, read-out: ED50 i.v.

SMILES	solubility at 24 h [1, 3] [µg/mL]	Aqueous Solubility pH~7 (visual clarity) [1]	ED50 [2, 4] [mg/kg]	ED50 [2, 5] [mg/kg]	further results
COc1c(N2CCC/C(=C(\F)CNC(=O)[C@H](C)NC(=O)[C@H](C)N)C2)c(F)cc2c(=O)c(C(=O)O)cn(C3CC3)c12.Cl [Compound 2, 7-(3-{2-[(2S)-2-((2S)-2-Amino-propionylamino)-propionylamino]-1-fluoro-ethylidene}-piperidin-1-yl)-1-cyclopropyl-6-fluoro-8-methoxy-4-oxo-1,4-dihydro-quinoline-3-carboxylic acid hydrochloride]	< 3300	No	> 14.9	2.6	–
COc1c(N2CCC/C(=C(\F)CNC(=O)[C@@H](N)Cc3ccccc3)C2)c(F)cc2c(=O)c(C(=O)O)cn(C3CC3)c12.Cl [Compound 3, 7-{3-[2-((2S)-2-Amino-3-phenyl-propionylamino)-1-fluoro-ethylidene]-piperidin-1-yl}-1-cyclopropyl-6-fluoro-8-methoxy-4-oxo-1,4-dihydro-quinoline-3-carboxylic acid hydrochloride]	< 3300	No	> 14.8	1.4	–
COc1c(N2CCC/C(=C(\F)CNC(=O)[C@@H](N)CC(=O)O)C2)c(F)cc2c(=O)c(C(=O)O)cn(C3CC3)c12.Cl [Compound 5, 7-{3-[2-((2S)-2-Amino-3-carboxy-propionylamino)-1-fluoro-ethylidene]-piperidin-1-yl}-1-cyclopropyl-6-fluoro-8-methoxy-4-oxo-1,4-dihydro-quinoline-3-carboxylic acid hydrochloride]	< 3300	No	> 15.7	> 3.9	–
CN[C@@H](C)C(=O)NC/C(F)=C1/CCCN(c2c(F)cc3c(=O)c(C(=O)O)cn(C4CC4)c3c2OC)C1.Cl [Compound 7, 1-Cyclopropyl-6-fluoro-7-{3-[1-fluoro-2-((2S)-2-methylamino-propionylamino)-ethylidene]-piperidin-1-yl}-8-methoxy-4-oxo-1,4-dihydro-quinoline-3-carboxylic acid hydrochloride]	> 3300	Yes	–	–	% Survival ([2]; at 2.1 mg/kg/day): 0% at 2.1 mg/kg/day
COc1c(N2CCC/C(=C(\F)CNC(=O)OCc3oc(=O)oc3C)C2)c(F)cc2c(=O)c(C(=O)O)cn(C3CC3)c12 [Compound 8, 1-Cyclopropyl-6-fluoro-7-{3-[1-fluoro-2-(5-methyl-2-oxo-[1,3]dioxol-4-ylmethoxycarbonylamino)-ethylidene]-piperidin-1-yl}-8-methoxy-4-oxo-1,4-dihydro-quinoline-3-carboxylic acid]	< 3300	No	–	–	–
COc1c(N2CCC/C(=C(\F)CNC(=O)[C@@H](N)CCCCN)C2)c(F)cc2c(=O)c(C(=O)O)cn(C3CC3)c12.Cl.Cl [Compound 9, 1-Cyclopropyl-7-{3-[2-((2S)-2,6-diamino-hexanoylamino)-1-fluoro-ethylidene]-piperidin-1-yl}-6-fluoro-8-methoxy-4-oxo-1,4-dihydro-quinoline-3-carboxylic acid dihydrochloride]	> 3300	Yes	–	–	% Survival ([2]; at 1.9 mg/kg/day): 25% at 1.9 mg/kg/day
COc1c(N2CCC/C(=C(\F)CNC(=O)[C@H](CC(C)C)NC(=O)[C@H](C)N)C2)c(F)cc2c(=O)c(C(=O)O)cn(C3CC3)c12.Cl [Compound 10, 7-(3-{2-[(2S)-2-((2S)-2-Amino-propionylamino)-4-methyl-pentanoylamino]-1-fluoro-ethylidene}-piperidin-1-yl)-1-cyclopropyl-6-fluoro-8-methoxy-4-oxo-1,4-dihydro-quinoline-3-carboxylic acid hydrochloride]	< 3300	No	–	–	% Survival ([2]; at 2.4 mg/kg/day): 25% at 2.4 mg/kg/day
CCOC(=O)c1cn(C2CC2)c2c(OC)c(N3CCC/C(=C(\F)CN)C3)c(F)cc2c1=O.Cl [Compound 11, 7-[3-(2-Amino-1-fluoro-ethylidene)-piperidin-1-yl]-1-cyclopropyl-6-fluoro-8-methoxy-4-oxo-1,4-dihydro-quinoline-3-carboxylic acid ethyl ester hydrochloride]	< 3300	No	6.7	1.2	–
CCOP(=O)(NCC(F)=C1CCCN(c2c(F)cc3c(=O)c(C(=O)[O-])cn(C4CC4)c3c2OC)C1)OCC.[Na+] [Compound 13, 1-Cyclopropyl-7-{3-[2-(diethoxy-phosphorylamino)-1-fluoro-ethylidene]-piperidin-1-yl}-6-fluoro-8-methoxy-4-oxo-1,4-dihydro-quinoline-3-carboxylic acid sodium salt]	–	–	–	–	solubility at 24 h ([1]; thermodynamic from solid): < 3300 µg/mL; solubility ([1]; pH 7.8, aqueous buffer, thermodynamic from solid): 1800 µg/mL; % Survival ([2]; at 3.8 mg/kg/day): 12.5% at 3.8 mg/kg/day
